For eight molecules, IC50 growth inhibition results are on record in the supplement of paper PMC6461962.

The subject of assay [1] is Rhodanobacter sp. FW104-10B01. The procedure, abridged:
(§1)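 Cells were washed and added to 384-well plates at a final OD600 of 0.02 in 80 µL, with serial dilutions of inorganic ion salts or equimolar nitrilotriacetic acid complexes. Aerobic plates were shaken at 700 rpm at 30 °C, while anaerobic plates were not shaken, and OD600 was read at 24 h, or at 48 h for R2A strain comparisons. Readings were scaled between water controls and growth-blocking antibiotic controls, and wells with precipitate were excluded. The IC50 was obtained by fitting curves from at least two biological replicates with the drc R package.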

For assay [2], the system named is Pseudomonas fluorescens FW300-N2E2. The gist of the method: as §1
[3] abbreviates: medium / electron acceptor: 10B01 R2A/aerobic.
[4] abbreviates: medium / electron acceptor: 10B01 R2A/nitrate.
Where [5] appears, read: medium / electron acceptor: N2E2 Glucose/aerobic.
Setting [6] is: medium / electron acceptor: N2E2 Glucose/aerobic 0.25xMinerals.
Setting [7] is: medium / electron acceptor: N2E2 Glucose/aerobic (2).
Where [8] appears, read: medium / electron acceptor: N2E2 KB/aerobic.
Setting [9] is: medium / electron acceptor: N2E2 LB/aerobic.
Setting [10] is: medium / electron acceptor: N2E2 LB/aerobic (2).
The mark [11] stands for this setting: medium / electron acceptor: N2E2 LB/nitrate.
Setting [12] is: medium / electron acceptor: N2E2 Lactate/aerobic.
Where [13] appears, read: medium / electron acceptor: N2E2 R2A/aerobic.

Molecules are shown by their SMILES.

Turning to `O=C(O)C[C@H](NCCN[C@@H](CC(=O)O)C(=O)O)C(=O)O` [Ethylenediamine-N,N'-disuccinic acid], the IC50 growth inhibition was 1.76 mM in assay [1] (setting [3]); 2.76 mM in assay [1] (setting [4]); below 0.122 mM in assay [2] (setting [5]); below 0.122 mM in assay [2] (setting [6]); below 0.122 mM in assay [2] (setting [7]); below 0.122 mM in assay [2] (setting [8]). The IC50 growth inhibition is below 0.122 mM in assay [2] (setting [9]); below 0.122 mM in assay [2] (setting [10]); 0.488 mM in assay [2] (setting [11]); below 0.122 mM in assay [2] (setting [12]); below 0.122 mM in assay [2] (setting [13]).

As to `[I-].[Na+]` [sodium iodide], the IC50 growth inhibition in assay [1] (setting [3]) was 354 mM; in assay [1] (setting [4]), 319 mM; in assay [2] (setting [5]), 59.4 mM; in assay [2] (setting [6]), above 500 mM; in assay [2] (setting [7]), 107 mM; in assay [2] (setting [8]) it was 304 mM. Moreover, the IC50 growth inhibition was determined as 330 mM in assay [2] (setting [9]); 354 mM in assay [2] (setting [10]); 125 mM in assay [2] (setting [11]); 124 mM in assay [2] (setting [12]); 237 mM in assay [2] (setting [13]).

`O.O.O.O.O.[Cd+2].[Cd+2].[Cl-].[Cl-].[Cl-].[Cl-]` [Cadmium chloride hemipentahydrate]: the IC50 growth inhibition was 0.11 mM in assay [1] (setting [3]); 0.189 mM in assay [1] (setting [4]); below 0.00244 mM in assay [2] (setting [5]); below 0.00244 mM in assay [2] (setting [6]); below 0.00244 mM in assay [2] (setting [7]); 0.117 mM in assay [2] (setting [8]). In addition, the IC50 growth inhibition is 0.141 mM in assay [2] (setting [9]); 0.0516 mM in assay [2] (setting [10]); 0.111 mM in assay [2] (setting [11]); below 0.00244 mM in assay [2] (setting [12]); 0.014 mM in assay [2] (setting [13]).

For `[Cl-].[K+]` [Potassium Chloride], the IC50 growth inhibition in assay [1] (setting [3]) is above 500 mM; in assay [1] (setting [4]) it was 381 mM; in assay [2] (setting [5]), above 500 mM; in assay [2] (setting [6]), above 500 mM; in assay [2] (setting [7]), above 500 mM; in assay [2] (setting [8]), above 500 mM. Further, the IC50 growth inhibition in assay [2] (setting [9]) was above 500 mM; in assay [2] (setting [10]) it was above 500 mM; in assay [2] (setting [11]), 458 mM; in assay [2] (setting [12]) it was above 500 mM; in assay [2] (setting [13]), above 500 mM.

Consider `OP(O)O` [Sodium phosphite dibasic pentahydrate], for which the IC50 growth inhibition in assay [1] (setting [3]) was above 500 mM; in assay [1] (setting [4]), 197 mM; in assay [2] (setting [5]), below 0.244 mM; in assay [2] (setting [6]) it was below 0.244 mM; in assay [2] (setting [7]) it was below 0.244 mM; in assay [2] (setting [8]) it was 2.03 mM. The IC50 growth inhibition is 354 mM in assay [2] (setting [9]); 354 mM in assay [2] (setting [10]); 118 mM in assay [2] (setting [11]); below 0.244 mM in assay [2] (setting [12]); 309 mM in assay [2] (setting [13]).

With `OB1OB2OB(O)OB(O1)O2` [sodium tetraborate decahydrate], the IC50 growth inhibition in assay [1] (setting [3]), in assay [1] (setting [4]), in assay [2] (setting [5]), in assay [2] (setting [6]), in assay [2] (setting [7]) and in assay [2] (setting [8]) was above 5 mM throughout. The IC50 growth inhibition in assay [2] (setting [9]) is above 5 mM; in assay [2] (setting [10]), above 5 mM; in assay [2] (setting [11]), 3.16 mM; in assay [2] (setting [12]) it was above 5 mM; in assay [2] (setting [13]), above 5 mM.

Regarding `O.O.[Ba+2].[Cl-].[Cl-]` [Barium chloride dihydrate], the IC50 growth inhibition is above 5 mM in assay [1] (setting [3]); above 5 mM in assay [1] (setting [4]); above 5 mM in assay [2] (setting [5]); 3.19 mM in assay [2] (setting [6]); 2.84 mM in assay [2] (setting [7]); 3.22 mM in assay [2] (setting [8]). Also, the IC50 growth inhibition in assay [2] (setting [9]) was above 5 mM; in assay [2] (setting [10]), above 5 mM; in assay [2] (setting [11]), 4.99 mM; in assay [2] (setting [12]), above 5 mM; in assay [2] (setting [13]), above 5 mM.

With `O=C(O)CN(CC(=O)O)CC(=O)O` [Nitrilotriacetic acid], the IC50 growth inhibition was above 250 mM in assay [1] (setting [3]); above 250 mM in assay [1] (setting [4]); 0.345 mM in assay [2] (setting [5]); 21.4 mM in assay [2] (setting [6]); 6.51 mM in assay [2] (setting [7]); 15.3 mM in assay [2] (setting [8]). For the same molecule, the IC50 growth inhibition in assay [2] (setting [9]) was 54.7 mM; in assay [2] (setting [10]), 111 mM; in assay [2] (setting [11]), 6.75 mM; in assay [2] (setting [12]) it was below 0.122 mM; in assay [2] (setting [13]), 9.21 mM.
